The source of these data is PMC5442262, “Catechol glucosides act as donor/acceptor substrates of glucansucrase enzymes of Lactobacillus reuteri” (Applied Microbiology and Biotechnology, 2017).

Common to all, as to type: biochemical
The target in one experiment is T1, GtfML1-ΔN (Limosilactobacillus reuteri, UniProt Q5SBN0).
T1 construct: recombinant, N-terminally truncated (ΔN); also printed GtfMLI-ΔN
The experiment is described as follows: MALDI-TOF-MS of products. The settings on record: 100 mM catG1, 24 h; 25 mM sodium acetate pH 4.7, 1 mM CaCl2, 37 °C; donor and acceptor.

In experiment [1] the target is T2, Gtf180-ΔN (Limosilactobacillus reuteri, UniProt Q5SBN3).
T2 construct: recombinant, N-terminally truncated (ΔN)
T2 sequence (Q5SBN3 entry or part of it, stated change not applied): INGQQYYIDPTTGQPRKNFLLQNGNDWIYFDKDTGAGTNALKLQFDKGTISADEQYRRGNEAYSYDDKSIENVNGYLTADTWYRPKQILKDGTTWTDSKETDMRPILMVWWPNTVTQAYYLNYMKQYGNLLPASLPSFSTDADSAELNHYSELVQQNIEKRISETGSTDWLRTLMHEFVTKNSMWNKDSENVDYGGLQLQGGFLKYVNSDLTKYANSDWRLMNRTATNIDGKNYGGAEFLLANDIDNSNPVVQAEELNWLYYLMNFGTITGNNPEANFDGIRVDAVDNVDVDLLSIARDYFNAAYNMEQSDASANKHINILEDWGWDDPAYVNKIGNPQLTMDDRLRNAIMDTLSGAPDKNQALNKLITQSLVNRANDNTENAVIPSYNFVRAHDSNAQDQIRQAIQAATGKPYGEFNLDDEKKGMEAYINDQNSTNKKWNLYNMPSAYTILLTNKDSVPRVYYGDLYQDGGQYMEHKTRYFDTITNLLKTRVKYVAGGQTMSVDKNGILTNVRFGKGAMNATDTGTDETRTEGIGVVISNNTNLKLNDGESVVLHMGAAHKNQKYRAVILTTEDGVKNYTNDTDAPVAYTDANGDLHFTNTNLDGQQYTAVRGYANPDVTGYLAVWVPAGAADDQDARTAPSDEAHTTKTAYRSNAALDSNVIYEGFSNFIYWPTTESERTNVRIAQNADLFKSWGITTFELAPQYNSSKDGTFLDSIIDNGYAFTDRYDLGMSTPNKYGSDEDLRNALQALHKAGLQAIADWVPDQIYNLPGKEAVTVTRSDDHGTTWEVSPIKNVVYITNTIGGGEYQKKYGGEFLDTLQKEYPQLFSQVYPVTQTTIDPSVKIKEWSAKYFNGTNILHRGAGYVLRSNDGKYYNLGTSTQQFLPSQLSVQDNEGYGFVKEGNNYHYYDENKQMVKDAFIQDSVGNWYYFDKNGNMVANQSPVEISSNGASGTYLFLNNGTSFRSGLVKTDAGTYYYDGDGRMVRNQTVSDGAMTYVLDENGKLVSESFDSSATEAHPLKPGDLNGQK
The experiment can be described thus: MALDI-TOF-MS of products. As to conditions: 100 mM catG1, 24 h; 25 mM sodium acetate pH 4.7, 1 mM CaCl2, 37 °C; donor and acceptor.

In experiment [2] the target is T2, Gtf180-ΔN. The experiment is described as follows: NP-HPLC of substrate decrease; 1H NMR of products. The settings on record: 100 mM cat^6G2; 25 mM sodium acetate pH 4.7, 1 mM CaCl2, 37 °C; donor and acceptor.

T1 sequence (Q5SBN0 entry or part of it, stated change not applied): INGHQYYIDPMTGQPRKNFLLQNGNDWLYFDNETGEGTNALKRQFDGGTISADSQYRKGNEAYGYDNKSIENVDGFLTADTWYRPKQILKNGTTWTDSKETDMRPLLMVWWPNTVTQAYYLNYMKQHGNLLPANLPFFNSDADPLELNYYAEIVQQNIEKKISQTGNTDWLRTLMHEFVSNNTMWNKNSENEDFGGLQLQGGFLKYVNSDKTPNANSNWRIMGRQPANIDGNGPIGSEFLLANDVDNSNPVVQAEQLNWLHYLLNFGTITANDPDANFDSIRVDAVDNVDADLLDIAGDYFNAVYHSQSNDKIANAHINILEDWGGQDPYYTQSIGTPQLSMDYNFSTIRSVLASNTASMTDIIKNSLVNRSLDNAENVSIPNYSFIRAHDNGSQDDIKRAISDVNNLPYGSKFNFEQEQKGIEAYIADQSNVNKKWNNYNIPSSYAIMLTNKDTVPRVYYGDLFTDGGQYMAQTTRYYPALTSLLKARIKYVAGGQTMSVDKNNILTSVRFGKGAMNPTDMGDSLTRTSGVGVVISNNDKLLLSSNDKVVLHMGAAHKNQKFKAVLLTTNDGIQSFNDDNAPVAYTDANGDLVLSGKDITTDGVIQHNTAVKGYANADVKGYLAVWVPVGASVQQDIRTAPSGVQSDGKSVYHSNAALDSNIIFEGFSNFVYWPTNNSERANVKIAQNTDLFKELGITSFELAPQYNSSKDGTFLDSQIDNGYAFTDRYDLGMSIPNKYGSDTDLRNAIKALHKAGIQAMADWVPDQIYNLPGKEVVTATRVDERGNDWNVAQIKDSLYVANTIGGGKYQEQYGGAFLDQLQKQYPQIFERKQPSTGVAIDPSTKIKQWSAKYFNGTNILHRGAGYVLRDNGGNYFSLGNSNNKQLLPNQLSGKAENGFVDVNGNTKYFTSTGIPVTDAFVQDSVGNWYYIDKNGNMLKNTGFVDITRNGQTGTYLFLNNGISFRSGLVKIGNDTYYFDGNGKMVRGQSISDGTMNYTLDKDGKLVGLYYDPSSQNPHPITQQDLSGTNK

On to `OC[C@H]1O[C@H](Oc2ccccc2O)[C@H](O)[C@@H](O)[C@@H]1O` [catG1], for which the MALDI-TOF-MS of products result was “Gtf180-ΔN and GtfMLI-ΔN glucansucrase enzymes also were able to use catG1 as glucosyl donor” on GtfML1-ΔN; “Gtf180-ΔN and GtfMLI-ΔN glucansucrase enzymes also were able to use catG1 as glucosyl donor” at Gtf180-ΔN [1].

For `OC[C@H]1O[C@H](OC[C@H]2O[C@H](Oc3ccccc3O)[C@H](O)[C@@H](O)[C@@H]2O)[C@H](O)[C@@H](O)[C@@H]1O` [cat^6G2], the “NP-HPLC of substrate decrease; 1H NMR of products” value on Gtf180-ΔN [2] was “Gtf180-ΔN used both cat^3G2 and cat^6G2 as donor/acceptor substrates”.
